Test results published in patent US11033527B2, “Non-hormonal treatment of the genitourinary syndrome of menopause” (IMMUGEN PHARMA LLC, priority 2018, dated 2021).
“And” between values parts separate entries of the source, which are not always exact repeats. Identical values can stand only once.

Columns and labels:
vaginal tissue construct = assay: microarray analysis of differential gene expression (Affymetrix Human Gene 1.0 ST arrays), tissues treated for seven days via culture medium; format: cell-based
Description: The data from the Affymetrix Human Gene 1.0 ST arrays were normalized using the Robust Multiarray Average (RMA) algorithm and a Chip Definition File (CDF) that maps the probes on the array to unique Entrez Gene identifiers. The result is a matrix in which each column corresponds to a sample. The expression values are log 2-transformed by default.
By using a fold change >1.5, an analysis of differentially expressed genes was done to identify those genes which were involved in the cornified envelope, keratinocyte differentiation, cell differentiation, epidermis development, epithelial cell differentiation, junctional proteins and signaling, immune response and innate immune response.

EpiVaginal tissues = assay: macrophage infiltration in treated EpiVaginal tissues (barrier function), four hours in the presence of TNF-α; format: cell-based; conditions: vs. 28% into the untreated tissue; macrophages cultured with the tissue for four hours in the presence of TNF-α
Description: FIG. 1 is a graph showing macrophage infiltration in hormone (estrogen) and L759,633-treated EpiVaginal tissues. L759,633 had the most striking effect on macrophage infiltration: only 6% of cells infiltrated into the tissue past 90 μm (vs. 28% into the untreated tissue, p<0.006 ANOVA). […] U=untreated control; E=estradiol; P=progesterone; and IMG=the cannabinoid L759,633.
Many of the above-noted genes are differentially regulated by estradiol in menopausal tissue. […] With respect to the barrier function, only 6% of macrophages which had been cultured with the tissue for four hours in the presence of TNF-α were capable of infiltrating into the tissue past 90 um (vs. 28% into the untreated tissue, p<0.006 ANOVA). […] This would indicate that the increased gene expression of the proteins involved with cross-linking of the keratin fibers, filagrins and desmosomal cadherins are all contributing to the fortification of the vaginal mucosa which would prevent the infiltration of pathogens and prevent the loss of solutes and water from within the tissue.

[1] = molecular target: endocannabinoid receptor type 2 (CB2) (Homo sapiens, UniProt P34972); conditions: cited from earlier work
Sequence of endocannabinoid receptor type 2 (CB2) (P34972 whole entry, species assumed): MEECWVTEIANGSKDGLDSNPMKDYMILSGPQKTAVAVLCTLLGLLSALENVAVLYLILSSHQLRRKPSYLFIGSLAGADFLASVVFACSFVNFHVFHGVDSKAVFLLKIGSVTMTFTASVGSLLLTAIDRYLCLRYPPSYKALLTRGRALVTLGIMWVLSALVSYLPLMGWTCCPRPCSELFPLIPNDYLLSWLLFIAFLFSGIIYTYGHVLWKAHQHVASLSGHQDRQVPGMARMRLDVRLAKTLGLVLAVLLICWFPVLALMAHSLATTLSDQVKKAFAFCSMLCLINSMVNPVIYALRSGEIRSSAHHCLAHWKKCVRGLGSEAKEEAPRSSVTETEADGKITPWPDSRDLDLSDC

[2] = down-regulated by this fold, given without sign

CCCCCCC(C)(C)c1cc(OC)c2c(c1)OC(C)(C)[C@@H]1CC=C(C)C[C@@H]21 [L759,633]
SPRR2D Fold Change (vaginal tissue construct): 3.431 fold
WFDC12 Fold Change (vaginal tissue construct): 7.884 fold
CFB down-regulation (vaginal tissue construct; [2]): 2.285 fold
CFH down-regulation (vaginal tissue construct; [2]): 1.769 fold
AGR2 Fold Change (vaginal tissue construct; gene Anterior gradient homolog 2 (Xenopus laevis)): −3.1 fold
CXCL8 Expr Fold Change (vaginal tissue construct; gene C-X-C motif chemokine ligand 8): −2.298 fold
CXCL17 Expr Fold Change (vaginal tissue construct; gene C-X-C motif chemokine ligand 17): −2.038 fold
CXCR2 Expr Fold Change (vaginal tissue construct; gene C-X-C motif chemokine receptor 2): 1.871 fold
CD14 Expr Fold Change (vaginal tissue construct; gene CD14 molecule): −2.154 fold
CD74 Expr Fold Change (vaginal tissue construct; gene CD74 molecule): −2.103 fold
CD151 Expr Fold Change (vaginal tissue construct; gene CD151 molecule (Raph blood group)): −1.664 fold
CD244 Expr Fold Change (vaginal tissue construct; gene CD244 molecule): 2.837 fold
CDSN Fold Change (vaginal tissue construct; gene Corneodesmosin): 9.465 fold
CCL28 Expr Fold Change (vaginal tissue construct; gene C−C motif chemokine ligand 28): −2.504 fold
FYB1 Expr Fold Change (vaginal tissue construct; gene FYN binding protein 1): −2.604 fold
IFNE Fold Change (vaginal tissue construct; gene Interferon Epsilon): 5.496 fold
IL19 Fold Change (vaginal tissue construct; gene Interleukin 19): −3.5 fold
NLRP10 Fold Change (vaginal tissue construct; gene NLR family pyrin domain containing 10): 15.93 fold
RNAse7 Fold Change (vaginal tissue construct; gene RNAse family): 8.158 fold
TIAM1 Expr Fold Change (vaginal tissue construct; gene T cell lymphoma invasion and metastasis 1): 2.249 fold
TNFAIP8 Expr Fold Change (vaginal tissue construct; gene TNF alpha induced protein 8): −1.601 fold
TNFRSF10C Expr Fold Change (vaginal tissue construct; gene TNF receptor superfamily member 10c): −2.458 fold
TNFRSF11B Expr Fold Change (vaginal tissue construct; gene TNF receptor superfamily member 11b): −2.012 fold
TSPAN1 Fold Change (vaginal tissue construct; gene Tetraspanin 1): −2.3 fold
TGM1 Fold Change (vaginal tissue construct; gene Transglutaminase 1): 1.966 fold
TGM3 Fold Change (vaginal tissue construct; gene Transglutaminase 3): 30.074 fold and 30.1 fold
TGM5 Fold Change (vaginal tissue construct; gene Transglutaminase 5): 2.237 fold
TRIM31 Fold Change (vaginal tissue construct; gene Tripartite motif-containing 31): −5.9 fold
VTCN1 Expr Fold Change (vaginal tissue construct; gene V-set domain containing T cell activation inhibitor 1): −4.666 fold
WFDC2 Fold Change (vaginal tissue construct; gene WAP four-disulfide core domain 2): −2.8 fold
WFDC5 Fold Change (vaginal tissue construct; gene WAP four-disulfide core domain 5): 3.139 fold
ALOX12B Fold Change (vaginal tissue construct; gene arachidonate 12-lipoxygenase, 12R type): 6.6 fold and 6.683 fold
ALOX12 Fold Change (vaginal tissue construct; gene arachidonate 12-lipoygenase): 1.5 fold
ALOXE3 Fold Change (vaginal tissue construct; gene arachidonate lipoxygenase 3): 3.659 fold
ASS1 Fold Change (vaginal tissue construct; gene arginosuccinate synthetase 1): −2.8 fold
CLDN17 Fold Change (vaginal tissue construct; gene claudin 17): 11 fold
CCDC59 Expr Fold Change (vaginal tissue construct; gene coiled-coil domain containing 59): −1.795 fold
CSF2RB Expr Fold Change (vaginal tissue construct; gene colony stimulating factor 2 receptor beta common subunit): 2.79 fold
CFH Expr Fold Change (vaginal tissue construct; gene complement factor H): −1.769 fold
CNFN Fold Change (vaginal tissue construct; gene cornifelin): 1.62 fold
CRCT1 Fold Change (vaginal tissue construct; gene cysteine-rich C-terminal 1): 2.6 fold
DMKN Fold Change (vaginal tissue construct; gene dermokine): 2.362 fold
DCS3 Fold Change (vaginal tissue construct; gene descmocollin 3): 1.9 fold
DSC1 Fold Change (vaginal tissue construct; gene desmocollin 1): 10.494 fold
DSC2 Fold Change (vaginal tissue construct; gene desmocollin 2): 1.7 fold
DSG1 Fold Change (vaginal tissue construct; gene desmoglein 1): 9.191 fold and 8.7 fold
FLG Fold Change (vaginal tissue construct; gene filaggrin): 4.549 fold
FLG2 Fold Change (vaginal tissue construct; gene filaggrin family member 2): 10.449 fold
GYS2 Fold Change (vaginal tissue construct; gene glycogen synthase 2 (liver)): 2.9 fold
KPRP Fold Change (vaginal tissue construct; gene human keratinocyte proline rich protein): 25.318 fold and 25.3 fold
IFIT5 Expr Fold Change (vaginal tissue construct; gene interferon induced protein with tetratricopeptide repeats 5): −2.183 fold
IFIH1 Expr Fold Change (vaginal tissue construct; gene interferon induced with helicase C domain 1): −1.922 fold
IRF1 Expr Fold Change (vaginal tissue construct; gene interferon regulatory factor 1): −3.253 fold
IRF9 Expr Fold Change (vaginal tissue construct; gene interferon regulatory factor 9): −1.535 fold
IL1RL2 Expr Fold Change (vaginal tissue construct; gene interleukin 1 receptor like 2): 2.508 fold
IL7R Expr Fold Change (vaginal tissue construct; gene interleukin 7 receptor): −2.852 fold
IL18BP Expr Fold Change (vaginal tissue construct; gene interleukin 18 binding protein): 1.532 fold
IL23A Expr Fold Change (vaginal tissue construct; gene interleukin 23 subunit alpha): 2.677 fold
IL33 Expr Fold Change (vaginal tissue construct; gene interleukin 33): −3.109 fold
IL36A Expr Fold Change (vaginal tissue construct; gene interleukin 36 alpha): 4.185 fold
IL36RN Expr Fold Change (vaginal tissue construct; gene interleukin 36 receptor antagonist): 4.668 fold
KLK6 Fold Change (vaginal tissue construct; gene kallikrein related peptidase 6): 4.651 fold
KLK8 Fold Change (vaginal tissue construct; gene kallikrein related peptidase 8): 1.842 fold
KLK10 Fold Change (vaginal tissue construct; gene kallikrein related peptidase 10): 2.554 fold
KLK12 Fold Change (vaginal tissue construct; gene kallikrein related peptidase 12): 3.933 fold
KLK13 Fold Change (vaginal tissue construct; gene kallikrein related peptidase 13): 3.957 fold
KRT1 Fold Change (vaginal tissue construct; gene keratin 1): 10.739 fold and 10.5 fold
KRT2 Fold Change (vaginal tissue construct; gene keratin 2): 1.801 fold
KRT20 Fold Change (vaginal tissue construct; gene keratin 20): −3.42 fold
KRT23 Fold Change (vaginal tissue construct; gene keratin 23): 1.912 fold
KRT24 Fold Change (vaginal tissue construct; gene keratin 24): 1.619 fold
KRTDAP Fold Change (vaginal tissue construct; gene keratinocyte differentiation associated protein): 15.751 fold and 15.7 fold
LCE1A Fold Change (vaginal tissue construct; gene late cornified envelope 1A): 1.884 fold
LCE1C Fold Change (vaginal tissue construct; gene late cornified envelope 1C): 4.063 fold
LCE1F Fold Change (vaginal tissue construct; gene late cornified envelope 1F): 1.593 fold
LCE2A Fold Change (vaginal tissue construct; gene late cornified envelope 2A): 6.392 fold
LCE2B Fold Change (vaginal tissue construct; gene late cornified envelope 2B): 11.182 fold
LCE2C/LCE2D Fold Change (vaginal tissue construct; gene late cornified envelope 2D): 24.247 fold
LCE3D Fold Change (vaginal tissue construct; gene late cornified envelope 3D): 15.6 fold
LCE3E Fold Change (vaginal tissue construct; gene late cornified envelope 3E): 16 fold
LCE5A Fold Change (vaginal tissue construct; gene late cornified envelope 5A): 1.63 fold
LIPM Fold Change (vaginal tissue construct; gene lipase family member M): 11.426 fold
LIPN Fold Change (vaginal tissue construct; gene lipase family member N): 7.346 fold
LIPN1 Fold Change (vaginal tissue construct; gene lipin 1): 3.775 fold
LOR Fold Change (vaginal tissue construct; gene loricrin): 7.932 fold
LY6G6C Expr Fold Change (vaginal tissue construct; gene lymphocyte antigen 6 family member G6C): 6.538 fold
HLA-C Expr Fold Change (vaginal tissue construct; gene major histocompatibility complex, class C): −1.691 fold
HLA-B Expr Fold Change (vaginal tissue construct; gene major histocompatibility complex, class I, B): −2.168 fold
HLA-DMB Expr Fold Change (vaginal tissue construct; gene major histocompatibility complex, class II, DM beta): −1.591 fold
HLA-DPA1 Expr Fold Change (vaginal tissue construct; gene major histocompatibility complex, class II, DP alpha 1): −1.7 fold
HLA-DRA Expr Fold Change (vaginal tissue construct; gene major histocompatibility complex, class II, DR alpha): −2.792 fold
HLA-DRB6 Expr Fold Change (vaginal tissue construct; gene major histocompatibility complex, class II, DR beta 6 (pseudogene)): −2.7 fold
ME1 Fold Change (vaginal tissue construct; gene malic enzyme 1, NADP(+)-dependent cytosolic): 2.9 fold
MUCL1 Fold Change (vaginal tissue construct; gene mucin like 1): ~2 fold and 1.964 fold
NCR3LG1 Expr Fold Change (vaginal tissue construct; gene natural killer cell cytotoxicity receptor 3 ligand 1): 2.482 fold
NFAT5 Expr Fold Change (vaginal tissue construct; gene nuclear factor of activated T cells 5): 2.265 fold
OLFM4 Expr Fold Change (vaginal tissue construct; gene olfactomedin 4): −6.772 fold
PNLIPRP3 Fold Change (vaginal tissue construct; gene pancreatic lipase-related protein 3): 1.6 fold
PLA2G2F Fold Change (vaginal tissue construct; gene phospholipase A2 group IIF): 2.054 fold
PLA2G3 Fold Change (vaginal tissue construct; gene phospholipase A2 group III): 2.218 fold
PLA2G4D Fold Change (vaginal tissue construct; gene phospholipase A2 group IVD): 3.526 fold
PLA2G4E Fold Change (vaginal tissue construct; gene phospholipase A2 group IVE): 3.36 fold
PLA2G10 Fold Change (vaginal tissue construct; gene phospholipase A2 group X): −3.027 fold
PLAC8 Fold Change (vaginal tissue construct; gene placenta-specific 8): −3.3 fold
PIGR Fold Change (vaginal tissue construct; gene polymeric immunoglobulin receptor): −2.4 fold
PDCD1LG2 Expr Fold Change (vaginal tissue construct; gene programmed cell death 1 ligand 2): −1.74 fold
RPS15A Expr Fold Change (vaginal tissue construct; gene ribosomal protein S15a): −1.78 fold
SERPINB12 Fold Change (vaginal tissue construct; gene serpin family B member 12): 5.202 fold and 5.1 fold
STAT4 Expr Fold Change (vaginal tissue construct; gene signal transducer and activator of transcription 4): −2.518 fold
SPRR2G Fold Change (vaginal tissue construct; gene small proline rich protein 2G): 10.387 fold
SPRR4 Fold Change (vaginal tissue construct; gene small proline rich protein 4): 2.619 fold
SBSN Fold Change (vaginal tissue construct; gene suprabasin): 4.36 fold and 4.3 fold
TLR3 Expr Fold Change (vaginal tissue construct; gene toll like receptor 3): −3.274 fold
TRPV3 Fold Change (vaginal tissue construct; gene transient receptor potential cation channel subfamily V member 3): 2.8 fold and 2.804 fold
UBA7 Expr Fold Change (vaginal tissue construct; gene ubiquitin like modifier activating enzyme 7): −2.031 fold
VEGFA Fold Change (vaginal tissue construct; gene vascular endothelial growth factor A): 2.0 fold and 1.885 fold
mir-23 Expr Fold Change (vaginal tissue construct; microRNA 23a): 2.823 fold
mir-224 Expr Fold Change (vaginal tissue construct; microRNA 224): 6.266 fold
MMP10 expression (vaginal tissue construct; result in words): downregulated
macrophages infiltrated into the tissue past 90 μm (EpiVaginal tissues): 6%
agonist type by receptor internalization [1]: partial agonist
